Counter-ions that a name gives are not always drawn. Like-named read-outs stand apart in the source and are kept apart here.
Columns and labels:
[1] = Toxicity to normal cells (SRB); format: cell-based, mouse; conditions: mouse, Balb/c3t3 fibroblasts (normal cell line), read-out: BalB/C (GI50)
Description: MDA-MB-231 breast cancer cell lines (ATCC #HTB-26) and BxPC-3 pancreas cancer cell lines (ATCC #CRL 1687), which have been reported to express XIAP, were obtained from ATCC (American type culture collection; Rockville, Md.). MDA-MB-231 cell lines were incubated in L-15 medium supplemented with 10% FBS and 1% penicillin/streptomycin (Gibco BRL) at a T-75 cm^2 growth flask. In addition, BxPC-3 cell lines were incubated in RPMI medium supplemented with 10% FBS and 1% penicillin/streptomycin. For experiments of toxicity to normal cells, fibroblasts Hs27 (ATCC #CRL 1634) and Balb/c3t3 (ATCC #CCL 163) were used. The various cell lines were transferred into 96-well plates at a density of 3,000˜5,000 cells/100 μL, and cultured for 24 hours under conditions of 37° C., 5% CO2, 95% air, and 100% relative humidity (MDA-MB-231 cells were cultured under atmospheric conditions). The cells were treated with 10 μM˜0.1 nM of test compounds, and MDA-MB-231, BxPC-3, and normal cell lines were cultured for 120, 96, and 72 hours, respectively.
Cell viabilities of MDA-MB-231 cell lines were measured at an absorbance of 490 nm using CellTiter 96™ AQueous One Solution Cell proliferation Assay (MTS, Promega), and cell viabilities of BxPC-3 and normal cell lines were measured by fixing cells with 10% TCA (trichloroacetic acid), staining with SRB (sulforhodamine B), and measuring at 540 nm. From the values, GI50 values in which test compounds reduce the growth of cancer cells by 50% were calculated. The growth rates of cancer cells were calculated from following Equation 1 or 2. [(Ti−Tz)/(C−Tz)]×100 (for Ti>=Tz) [Equation 1] [(Ti−Tz)/Tz]×100 (for Ti<Tz) [Equation 2] In Equations 1 and 2, Tz refers to a density of untreated cells, which is an absorbance in 0% cell growth groups. C refers to a density of cells cultured by adding only medium, and Ti refers to a density of cells treated with test compounds.
GI50 value is the concentration of a test compound when the value of Equation 1 is 50, which indicates the concentration of test compound required to inhibit the cancer cells by 50%. On each measurement, test compounds were compared with a control.
The activity value of each compound (GI50 value) was shown in Table 5, and an IAP antagonist was used as a control.
In the activity measurement on MDA-MB-231 breast cancer cell lines, the values were represented as “***” for 100 nM or less, “**” for over 100 nM to below 1,000 nM, and “*” for 1,000 nM or more. In the measurement on normal cell lines, Balb/C and Hs27, the values were represented as “+++” for 10,000 nM or more, “++” for over 5,000 nM to below 10,000 nM, and “+” for 5,000 nM or less.

[2] = system: MDA-MB-231 breast cancer cell lines; assay: Evaluation of inhibition on cell growth (MTS); format: cell-based; conditions: Homo sapiens, MDA-MB-231, 120 hours
How it was run: (§1)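 Cells seeded at 3,000˜5,000 cells/100 μL, grown 24 h at 37° C (MDA-MB-231 under atmospheric conditions), then exposed to 10 μM˜0.1 nM compound. MDA-MB-231 cultured 120 h, read by MTS at 490 nm; fibroblasts cultured 72 h, TCA-fixed, SRB-stained, read at 540 nm. GI50 from growth relative to untreated and medium-only cells.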

[3] = Toxicity to normal cells (SRB); format: cell-based, human; conditions: human, Hs27 fibroblasts (normal cell line)
How it was run: as §1

| Compound | GI50 [2] [µM] | GI50 at 72 h [1] [µM] | GI50 at 72 h [3] [µM] |
| --- | --- | --- | --- |
| CN[C@@H](C)C(=O)N[C@H](C(=O)N1CCC[C@H]1C(=O)Nc1cc2c(Nc3ccccn3)ncnc2cc1OC)C(C)(C)C [Example 33, (S)-1-((S)-3,3-dimethyl-2-((S)-2-(methylamino)propanamido)butanoyl)-N-(7-methoxy-4-(pyridin-2-ylamino)quinazolin-6-yl)pyrrolidine-2-carboxamide] | ≤ 0.1 | > 10 | > 10 |
| COc1cc2ncnc(Nc3ccc(F)c(Cl)c3F)c2cc1NC(=O)[C@@H]1CCCN1C(=O)[C@@H](NC(=O)[C@H](C)N)C(C)(C)C [Example 12, (S)-1-((S)-2-((S)-2-aminopropanamido)-3,3-dimethylbutanoyl)-N-(4-(3-chloro-2,4-difluorophenylamino)-7-methoxyquinazolin-6-yl)pyrrolidine-2-carboxamide hydrochloride] | ≥ 1 | > 10 | > 10 |
| CN[C@@H](C)C(=O)N[C@H](C(=O)N1CCC[C@H]1C(=O)Nc1cc2c(Nc3ccc(F)c(Cl)c3F)ncnc2cc1O)C(C)(C)C [Example 43, (S)—N-(4-(3-chloro-2,4-difluorophenylamino)-7-hydroxyquinazolin-6-yl)-1-((S)-3,3-dimethyl-2-((S)-2-(methylamino)propanamido)butanoyl)pyrrolidine-2-carboxamide] | ≤ 0.1 | > 10 | > 10 |
| CN[C@@H](C)C(=O)N[C@H](C(=O)N1CCC[C@H]1C(=O)Nc1cc2c(Nc3c(F)cccc3F)ncnc2cc1OC)C(C)(C)C [Example 59, (S)—N-(4-(2,6-difluorophenylamino)-7-methoxyquinazolin-6-yl)-1-((S)-3,3-dimethyl-2-((S)-2-(methylamino)propanamido)butanoyl)pyrrolidine-2-carboxamide] | ≤ 0.1 | > 10 | > 10 |
| CN[C@@H](C)C(=O)N[C@H](C(=O)N1CCC[C@H]1C(=O)Nc1cc2c(Nc3ccc(-c4ccccc4)cc3)ncnc2cc1OC)C(C)(C)C [Example 39, (S)—N-(4-(biphenyl-4-ylamino)-7-methoxyquinazolin-6-yl)-1-((S)-3,3-dimethyl-2-((S)-2-(methylamino)propanamido)butanoyl)pyrrolidine-2-carboxamide hydrochloride] | ≤ 0.1 | > 10 | > 10 |
| CN[C@@H](C)C(=O)N[C@H](C(=O)N1CCCC[C@H]1C(=O)Nc1cc2c(Nc3ccc(F)c(Cl)c3F)ncnc2cc1OC)C(C)(C)C [Example 25] | 0.1 to 1 | > 10 | > 10 |
| CN[C@@H](C)C(=O)N[C@H](C(=O)N1CCC[C@H]1C(=O)Nc1cc2c(Nc3ccc(F)c(Cl)c3F)ncnc2cc1O[C@@H]1CCOC1)C(C)(C)C [Example 16, (S)—N-(4-(3-chloro-2,4-difluorophenylamino)-7-((R)-tetrahydrofuran-3-yloxy)quinazolin-6-yl)-1-((S)-3,3-dimethyl-2-((S)-2-(methylamino)propanamido)butanoyl)pyrrolidine-2-carboxamide hydrochloride] | 0.1 to 1 | > 10 | > 10 |
| CCN1CCN(c2ccc(Nc3ncnc4cc(OC)c(NC(=O)[C@@H]5CCCN5C(=O)[C@@H](NC(=O)[C@H](C)NC)C(C)(C)C)cc34)cc2)CC1 [Example 60, (S)-1-((S)-3,3-dimethyl-2-((S)-2-(methylamino)propanamido)butanoyl)-N-(4-(4-(4-ethylpiperazin-1-yl)phenylamino)-7-methoxyquinazolin-6-yl)pyrrolidine-2-carboxamide] | 0.1 to 1 | > 10 | > 10 |
| CN[C@@H](C)C(=O)N[C@H](C(=O)N1CCC[C@H]1C(=O)Nc1ccc2ncnc(Nc3cccc(Cl)c3F)c2c1)C(C)(C)C [Example 4, (S)—N-(4-(3-chloro-2-fluorophenylamino)quinazolin-6-yl)-1-((S)-3,3-dimethyl-2-((S)-2-(methylamino)propanamido)butanoyl)pyrrolidine-2-carboxamide hydrochloride] | 0.1 to 1 | > 10 | > 10 |
| CN[C@@H](C)C(=O)N[C@H](C(=O)N1CCC[C@H]1C(=O)Nc1cc2c(Nc3ccc(F)c(Cl)c3)ncnc2cc1OCCOC)C(C)(C)C [Example 5, (S)—N-(4-(3-chloro-4-fluorophenylamino)-7-(2-methoxyethoxy)quinazolin-6-yl)-1-((S)-3,3-dimethyl-2-((S)-2-(methylamino)propanamido)butanoyl)pyrrolidine-2-carboxamide hydrochloride] | 0.1 to 1 | > 10 | > 10 |

Further lines, with some results ahead:

| GI50 [2] [µM] | Compound | GI50 at 72 h [1] [µM] | GI50 at 72 h [3] [µM] |
| --- | --- | --- | --- |
| ≤ 0.1 | CN[C@@H](C)C(=O)N[C@H](C(=O)N1CCC[C@H]1C(=O)Nc1cc2c(Nc3ccc4c(c3)CCC4)ncnc2cc1OC)C(C)(C)C [Example 52, (S)—N-(4-(2,3-dihydro-1H-inden-5-ylamino)-7-methoxyquinazolin-6-yl)-1-((S)-3,3-dimethyl-2-((S)-2-(methylamino)propanamido)butanoyl)pyrrolidine-2-carboxamide hydrochloride] | > 10 | > 10 |
| 0.1 to 1 | CN[C@@H](C)C(=O)N[C@H](C(=O)N1CCC[C@H]1C(=O)Nc1cc2c(Nc3cnc4ccccc4c3)ncnc2cc1OC)C(C)(C)C [Example 62, (S)-1-((S)-3,3-dimethyl-2-((S)-2-(methylamino)propanamido)butanoyl)-N-(7-methoxy-4-(quinoline-3-ylamino)quinazolin-6-yl)pyrrolidine-2-carboxamide dihydrochloride] | > 10 | > 10 |
| ≤ 0.1 | CN[C@@H](C)C(=O)N[C@H](C(=O)N1CCC[C@H]1C(=O)Nc1cc2c(Nc3ccc(F)c(Cl)c3)ncnc2cc1OC)C(C)(C)C [Example 41, (S)—N-(4-(3-chloro-4-fluorophenylamino)-7-methoxyquinazolin-6-yl)-1-((S)-3,3-dimethyl-2-((S)-2-(methylamino)propanamido)butanoyl)pyrrolidine-2-carboxamide hydrochloride] | > 10 | > 10 |
| ≤ 0.1 | CN[C@@H](C)C(=O)N[C@H](C(=O)N1CCC[C@H]1C(=O)Nc1cc2c(Nc3ccc4[nH]ncc4c3)ncnc2cc1OC)C(C)(C)C [Example 54, (S)—N-(4-(1H-indazol-5-ylamino)-7-methoxyquinazolin-6-yl)-1-((S)-3,3-dimethyl-2-((S)-2-(methylamino)propanamido)butanoyl)pyrrolidine-2-carboxamide] | > 10 | > 10 |
| ≤ 0.1 | CN[C@@H](C)C(=O)N[C@H](C(=O)N1CCC[C@H]1C(=O)Nc1cc2c(Nc3ccc4ccccc4c3)ncnc2cc1OC)C(C)(C)C [Example 32, (S)-1-((S)-3,3-dimethyl-2-((S)-2-(methylamino)propanamido)butanoyl)-N-(7-methoxy-4-(naphthalen-2-ylamino)quinazolin-6-yl)pyrrolidine-2-carboxamide] | > 10 | > 10 |
| ≤ 0.1 | CN[C@@H](C)C(=O)N[C@H](C(=O)N1CCC[C@H]1C(=O)Nc1cc2c(Nc3ccc4ncccc4c3)ncnc2cc1OC)C(C)(C)C [Example 53, (S)-1-((S)-3,3-dimethyl-2-((S)-2-(methylamino)propanamido)butanoyl)-N-(7-methoxy-4-(quinoline-6-ylamino)quinazolin-6-yl)pyrrolidine-2-carboxamide] | > 10 | > 10 |
| ≤ 0.1 | CN[C@@H](C)C(=O)N[C@H](C(=O)N1CCC[C@H]1C(=O)Nc1cc2c(Nc3ccncc3)ncnc2cc1OC)C(C)(C)C [Example 73, (S)-1-((S)-3,3-dimethyl-2-((S)-2-(methylamino)propanamido)butanoyl)-N-(7-methoxy-4-(pyridin-4-ylamino)quinazolin-6-yl)pyrrolidine-2-carboxamide hydrochloride] | > 10 | > 10 |
